Measured values from paper PMC5428509, “Irreversible inhibition of BTK kinase by a novel highly selective inhibitor CHMFL-BTK-11 suppresses inflammatory response in rheumatoid arthritis model” (Scientific Reports, 2017).

Experiments:
[1] = target: PKNB(M.tuberculosis) (Mycobacterium tuberculosis, UniProt P9WI81); assay: biochemical; set-up: KinomeScan competition binding panel (DiscoveRx), percent of control at 1 uM; conditions: read-out: Percent Control
[2] = target: STK36 (Homo sapiens, UniProt Q9NRP7); assay: biochemical; set-up: KinomeScan competition binding panel (DiscoveRx), percent of control at 1 uM; conditions: read-out: Percent Control
Description: (§1) In order to further confirm the binding mode, we then tested the compounds in the BTK wild-type (wt) and BTK C481S mutant with immunoblotting by looking at the BTK Y551 auto-phosphorylation. […] In addition, a covalent bond was preferred to form between the […] acrylamide and Cys-481 near the hinge binding area, which further confirmed its irreversible binding mode (Fig. 1d). We next investigated CHMFL-BTK-11′s selectivity profile in 456 kinases/mutants with KinomeScan^TM technology.

[3] = target: T1, MLCK (Homo sapiens, UniProt Q32MK0); assay: biochemical; set-up: KinomeScan competition binding panel (DiscoveRx), percent of control at 1 uM; conditions: read-out: Percent Control
T1 construct: gene MYLK3
Description: as §1

[4] = target: RIOK1 (Homo sapiens, UniProt Q9BRS2); assay: biochemical; set-up: KinomeScan competition binding panel (DiscoveRx), percent of control at 1 uM; conditions: read-out: Percent Control
Description: as §1

[5] = target: PIK3CA (Homo sapiens, UniProt P42336); assay: biochemical; set-up: KinomeScan competition binding panel (DiscoveRx), percent of control at 1 uM; conditions: read-out: Percent Control
Description: as §1

[6] = target: T2, LOK (Homo sapiens, UniProt O94804); assay: biochemical; set-up: KinomeScan competition binding panel (DiscoveRx), percent of control at 1 uM; conditions: read-out: Percent Control
T2 construct: gene STK10
T2 sequence (O94804 whole entry): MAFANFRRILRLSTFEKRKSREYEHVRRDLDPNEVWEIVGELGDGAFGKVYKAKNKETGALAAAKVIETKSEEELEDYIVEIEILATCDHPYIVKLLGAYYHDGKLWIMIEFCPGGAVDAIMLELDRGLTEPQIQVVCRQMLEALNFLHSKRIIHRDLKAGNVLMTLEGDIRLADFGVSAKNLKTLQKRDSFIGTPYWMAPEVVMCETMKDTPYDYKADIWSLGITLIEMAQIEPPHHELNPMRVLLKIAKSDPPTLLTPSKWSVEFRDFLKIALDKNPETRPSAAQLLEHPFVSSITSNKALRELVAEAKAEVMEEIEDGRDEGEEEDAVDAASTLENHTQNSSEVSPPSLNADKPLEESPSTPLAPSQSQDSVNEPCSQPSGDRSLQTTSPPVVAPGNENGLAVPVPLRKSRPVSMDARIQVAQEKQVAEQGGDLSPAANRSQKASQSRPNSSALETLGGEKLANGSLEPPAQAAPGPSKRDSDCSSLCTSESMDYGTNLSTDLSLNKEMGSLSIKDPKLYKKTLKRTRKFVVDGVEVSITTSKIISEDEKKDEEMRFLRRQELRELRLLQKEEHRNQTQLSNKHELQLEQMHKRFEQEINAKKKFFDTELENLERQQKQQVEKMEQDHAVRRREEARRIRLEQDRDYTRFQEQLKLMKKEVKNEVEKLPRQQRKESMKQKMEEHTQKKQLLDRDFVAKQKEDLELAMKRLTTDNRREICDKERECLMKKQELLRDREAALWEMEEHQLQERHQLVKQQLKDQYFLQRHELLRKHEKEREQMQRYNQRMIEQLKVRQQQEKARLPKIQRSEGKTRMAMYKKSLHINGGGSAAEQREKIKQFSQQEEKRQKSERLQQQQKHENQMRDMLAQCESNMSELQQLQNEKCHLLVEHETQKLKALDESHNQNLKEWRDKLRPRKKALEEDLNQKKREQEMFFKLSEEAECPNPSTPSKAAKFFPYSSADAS
Description: as §1

[7] = target: T3, NIM1 (Homo sapiens, UniProt Q8IY84); assay: biochemical; set-up: KinomeScan competition binding panel (DiscoveRx), percent of control at 1 uM; conditions: read-out: Percent Control
T3 construct: gene NIM1K
T3 sequence (Q8IY84 whole entry): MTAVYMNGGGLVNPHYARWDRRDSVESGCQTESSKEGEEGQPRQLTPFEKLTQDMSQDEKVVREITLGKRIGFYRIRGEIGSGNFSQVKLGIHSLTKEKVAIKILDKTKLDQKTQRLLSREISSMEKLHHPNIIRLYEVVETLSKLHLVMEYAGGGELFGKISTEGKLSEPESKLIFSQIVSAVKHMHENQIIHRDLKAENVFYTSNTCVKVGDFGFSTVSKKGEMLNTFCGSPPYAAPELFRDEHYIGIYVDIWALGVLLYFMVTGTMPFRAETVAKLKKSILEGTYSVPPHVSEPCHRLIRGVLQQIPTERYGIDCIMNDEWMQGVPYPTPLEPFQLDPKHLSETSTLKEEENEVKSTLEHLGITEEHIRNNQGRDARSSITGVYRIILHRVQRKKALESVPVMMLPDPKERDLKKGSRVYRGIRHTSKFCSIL
Description: as §1

[8] = target: PAK6 (Homo sapiens, UniProt Q9NQU5); assay: biochemical; set-up: KinomeScan competition binding panel (DiscoveRx), percent of control at 1 uM; conditions: read-out: Percent Control
PAK6, sequence (Q9NQU5 whole entry): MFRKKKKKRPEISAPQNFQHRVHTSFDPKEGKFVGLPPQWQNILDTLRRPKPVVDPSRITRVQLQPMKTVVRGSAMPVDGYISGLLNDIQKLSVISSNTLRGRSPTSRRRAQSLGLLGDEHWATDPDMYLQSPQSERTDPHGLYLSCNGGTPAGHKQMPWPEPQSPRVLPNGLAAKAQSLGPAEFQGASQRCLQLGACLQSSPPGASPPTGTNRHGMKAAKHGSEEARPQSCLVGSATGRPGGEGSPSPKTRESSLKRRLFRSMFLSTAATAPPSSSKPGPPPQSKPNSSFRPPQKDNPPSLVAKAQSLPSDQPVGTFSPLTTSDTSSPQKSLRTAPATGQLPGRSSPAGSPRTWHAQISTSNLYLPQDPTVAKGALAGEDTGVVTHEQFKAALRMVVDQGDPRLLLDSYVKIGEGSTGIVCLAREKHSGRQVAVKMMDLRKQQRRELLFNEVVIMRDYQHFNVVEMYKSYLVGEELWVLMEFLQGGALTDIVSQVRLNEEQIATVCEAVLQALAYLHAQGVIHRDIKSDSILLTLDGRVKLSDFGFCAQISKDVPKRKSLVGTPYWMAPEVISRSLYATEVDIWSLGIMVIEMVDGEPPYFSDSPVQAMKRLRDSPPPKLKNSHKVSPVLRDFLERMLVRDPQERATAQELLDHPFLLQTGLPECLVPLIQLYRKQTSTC
Description: as §1

[9] = target: EPHA4 (Homo sapiens, UniProt P54764); assay: biochemical; set-up: KinomeScan competition binding panel (DiscoveRx), percent of control at 1 uM; conditions: read-out: Percent Control
EPHA4, sequence (P54764 whole entry): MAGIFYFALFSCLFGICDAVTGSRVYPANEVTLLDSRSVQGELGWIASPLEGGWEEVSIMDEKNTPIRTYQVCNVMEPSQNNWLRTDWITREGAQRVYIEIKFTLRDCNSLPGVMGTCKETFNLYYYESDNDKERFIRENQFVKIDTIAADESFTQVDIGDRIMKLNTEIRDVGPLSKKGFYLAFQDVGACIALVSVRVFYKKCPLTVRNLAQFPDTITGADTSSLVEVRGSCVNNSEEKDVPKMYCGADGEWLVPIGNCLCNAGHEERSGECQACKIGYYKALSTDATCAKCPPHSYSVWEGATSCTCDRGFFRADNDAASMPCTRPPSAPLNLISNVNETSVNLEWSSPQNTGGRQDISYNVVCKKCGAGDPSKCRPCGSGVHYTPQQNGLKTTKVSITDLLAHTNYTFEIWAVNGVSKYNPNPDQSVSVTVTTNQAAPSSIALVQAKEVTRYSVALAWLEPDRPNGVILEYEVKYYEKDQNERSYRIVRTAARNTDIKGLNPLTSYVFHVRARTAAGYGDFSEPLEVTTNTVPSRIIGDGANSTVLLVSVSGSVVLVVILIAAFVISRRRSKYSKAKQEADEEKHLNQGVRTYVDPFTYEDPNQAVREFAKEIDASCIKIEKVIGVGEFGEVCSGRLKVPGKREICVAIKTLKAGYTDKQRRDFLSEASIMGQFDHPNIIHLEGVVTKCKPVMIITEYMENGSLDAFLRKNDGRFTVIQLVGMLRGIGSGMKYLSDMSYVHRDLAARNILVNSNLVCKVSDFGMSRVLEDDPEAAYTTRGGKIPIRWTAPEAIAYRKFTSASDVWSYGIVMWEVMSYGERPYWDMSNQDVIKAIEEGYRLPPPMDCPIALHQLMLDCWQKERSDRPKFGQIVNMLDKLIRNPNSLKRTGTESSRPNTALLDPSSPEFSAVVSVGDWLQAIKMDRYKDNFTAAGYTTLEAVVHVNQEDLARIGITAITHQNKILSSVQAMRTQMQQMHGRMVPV
Description: as §1

[10] = target: ERBB2 (Homo sapiens, UniProt P04626); assay: biochemical; set-up: KinomeScan competition binding panel (DiscoveRx), percent of control at 1 uM; conditions: read-out: Percent Control
Description: as §1

[11] = target: MARK4 (Homo sapiens, UniProt Q96L34); assay: biochemical; set-up: KinomeScan competition binding panel (DiscoveRx), percent of control at 1 uM; conditions: read-out: Percent Control
Description: as §1

[12] = target: IRAK4 (Homo sapiens, UniProt Q9NWZ3); assay: biochemical; set-up: KinomeScan competition binding panel (DiscoveRx), percent of control at 1 uM; conditions: read-out: Percent Control
Description: as §1

[13] = target: PKMYT1 (Homo sapiens, UniProt Q99640); assay: biochemical; set-up: KinomeScan competition binding panel (DiscoveRx), percent of control at 1 uM; conditions: read-out: Percent Control
Description: as §1

[14] = target: TAOK3 (Homo sapiens, UniProt Q9H2K8); assay: biochemical; set-up: KinomeScan competition binding panel (DiscoveRx), percent of control at 1 uM; conditions: read-out: Percent Control
Description: as §1

[15] = target: HCK (Homo sapiens, UniProt P08631); assay: biochemical; set-up: KinomeScan competition binding panel (DiscoveRx), percent of control at 1 uM; conditions: read-out: Percent Control
Description: as §1

[16] = target: T4, CDC2L5 (Homo sapiens, UniProt Q14004); assay: biochemical; set-up: KinomeScan competition binding panel (DiscoveRx), percent of control at 1 uM; conditions: read-out: Percent Control
T4 construct: gene CDK13
Description: as §1

[17] = target: MAK (Homo sapiens, UniProt P20794); assay: biochemical; set-up: KinomeScan competition binding panel (DiscoveRx), percent of control at 1 uM; conditions: read-out: Percent Control
Description: as §1

[18] = target: RIOK3 (Homo sapiens, UniProt O14730); assay: biochemical; set-up: KinomeScan competition binding panel (DiscoveRx), percent of control at 1 uM; conditions: read-out: Percent Control
RIOK3, sequence (O14730 whole entry): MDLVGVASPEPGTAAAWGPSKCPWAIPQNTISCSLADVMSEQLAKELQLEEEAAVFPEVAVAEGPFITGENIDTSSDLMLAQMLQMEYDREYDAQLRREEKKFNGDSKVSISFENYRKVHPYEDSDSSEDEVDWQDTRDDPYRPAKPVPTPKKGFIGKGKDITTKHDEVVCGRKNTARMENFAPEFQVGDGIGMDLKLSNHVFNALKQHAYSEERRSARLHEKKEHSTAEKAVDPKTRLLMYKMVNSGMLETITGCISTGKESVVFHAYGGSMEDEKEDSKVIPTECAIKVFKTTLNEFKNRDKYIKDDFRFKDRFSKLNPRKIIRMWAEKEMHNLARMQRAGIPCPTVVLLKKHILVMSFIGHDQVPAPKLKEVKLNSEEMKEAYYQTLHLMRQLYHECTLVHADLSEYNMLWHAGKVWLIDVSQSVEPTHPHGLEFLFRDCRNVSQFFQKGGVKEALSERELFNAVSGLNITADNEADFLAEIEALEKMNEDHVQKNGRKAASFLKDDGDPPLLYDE
Description: as §1

[19] = target: T5, MEK4 (Homo sapiens, UniProt P45985); assay: biochemical; set-up: KinomeScan competition binding panel (DiscoveRx), percent of control at 1 uM; conditions: read-out: Percent Control
T5 construct: gene MAP2K4
T5 sequence (P45985 whole entry): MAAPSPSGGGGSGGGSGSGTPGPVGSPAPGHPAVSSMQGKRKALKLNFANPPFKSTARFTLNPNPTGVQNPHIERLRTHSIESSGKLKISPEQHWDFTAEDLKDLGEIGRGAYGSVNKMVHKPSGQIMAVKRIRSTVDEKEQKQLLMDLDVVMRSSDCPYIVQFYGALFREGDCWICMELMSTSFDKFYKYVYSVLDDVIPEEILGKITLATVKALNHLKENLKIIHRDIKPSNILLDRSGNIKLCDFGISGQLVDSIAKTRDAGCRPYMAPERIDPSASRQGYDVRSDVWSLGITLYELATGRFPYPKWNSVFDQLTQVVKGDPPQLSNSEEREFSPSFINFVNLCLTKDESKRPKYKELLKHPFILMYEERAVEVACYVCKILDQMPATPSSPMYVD
Description: as §1

[20] = target: PIM2 (Homo sapiens, UniProt Q9P1W9); assay: biochemical; set-up: KinomeScan competition binding panel (DiscoveRx), percent of control at 1 uM; conditions: read-out: Percent Control
Description: as §1

[21] = target: FLT3(D835Y) (Homo sapiens, UniProt P36888, D835Y); assay: biochemical; set-up: KinomeScan competition binding panel (DiscoveRx), percent of control at 1 uM; conditions: read-out: Percent Control
Description: as §1

[22] = target: EPHA7 (Homo sapiens, UniProt Q15375); assay: biochemical; set-up: KinomeScan competition binding panel (DiscoveRx), percent of control at 1 uM; conditions: read-out: Percent Control
Description: as §1

[23] = target: T6, LZK (Homo sapiens, UniProt O43283); assay: biochemical; set-up: KinomeScan competition binding panel (DiscoveRx), percent of control at 1 uM; conditions: read-out: Percent Control
T6 construct: gene MAP3K13
Description: as §1

[24] = target: T7, DRAK1 (Homo sapiens, UniProt Q9UEE5); assay: biochemical; set-up: KinomeScan competition binding panel (DiscoveRx), percent of control at 1 uM; conditions: read-out: Percent Control
T7 construct: gene STK17A
T7 sequence (Q9UEE5 whole entry): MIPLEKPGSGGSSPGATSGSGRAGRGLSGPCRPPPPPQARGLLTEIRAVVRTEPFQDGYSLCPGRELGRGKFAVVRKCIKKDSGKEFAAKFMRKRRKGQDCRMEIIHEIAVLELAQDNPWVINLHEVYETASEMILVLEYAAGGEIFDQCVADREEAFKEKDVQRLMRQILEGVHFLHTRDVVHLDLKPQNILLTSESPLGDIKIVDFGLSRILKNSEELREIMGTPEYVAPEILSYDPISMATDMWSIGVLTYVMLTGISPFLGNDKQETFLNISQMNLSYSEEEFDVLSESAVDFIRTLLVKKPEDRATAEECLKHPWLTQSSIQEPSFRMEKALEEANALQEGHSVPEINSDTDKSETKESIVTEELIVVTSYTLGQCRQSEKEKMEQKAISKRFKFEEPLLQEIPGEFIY
Description: as §1

[25] = target: T8, BTK kinase (Bruton's tyrosine kinase) (Homo sapiens, UniProt Q06187); assay: ADP-Glo biochemical kinase assay; supported by Y551 autophosphorylation of wt vs C481S BTK and KinomeScan binding
T8 construct: purified BTK kinase

[26] = target: T9, JAK3 kinase (Homo sapiens, UniProt P52333); assay: ADP-Glo biochemical kinase assay; also strong binding in KinomeScan at […]
T9 construct: purified JAK3 kinase protein

PKNB(M.tuberculosis), sequence (P9WI81 whole entry): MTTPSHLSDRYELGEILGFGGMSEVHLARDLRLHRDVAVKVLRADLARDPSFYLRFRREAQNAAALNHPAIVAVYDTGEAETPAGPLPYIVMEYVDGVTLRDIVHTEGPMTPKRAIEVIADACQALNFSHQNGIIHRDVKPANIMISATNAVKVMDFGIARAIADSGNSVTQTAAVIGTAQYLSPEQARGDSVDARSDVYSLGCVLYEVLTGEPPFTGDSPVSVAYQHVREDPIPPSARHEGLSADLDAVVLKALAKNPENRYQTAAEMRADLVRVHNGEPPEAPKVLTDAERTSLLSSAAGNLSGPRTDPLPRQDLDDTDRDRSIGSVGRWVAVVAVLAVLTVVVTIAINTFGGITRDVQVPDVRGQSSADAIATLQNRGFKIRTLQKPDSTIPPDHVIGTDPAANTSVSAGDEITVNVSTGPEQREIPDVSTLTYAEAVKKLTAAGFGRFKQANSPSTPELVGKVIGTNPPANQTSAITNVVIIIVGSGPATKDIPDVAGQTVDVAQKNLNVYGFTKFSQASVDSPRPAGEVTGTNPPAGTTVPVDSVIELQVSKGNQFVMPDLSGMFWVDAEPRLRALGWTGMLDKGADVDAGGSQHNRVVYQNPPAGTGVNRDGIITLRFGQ

SMILES: C=CC(=O)Nc1cc(-n2c(=O)ccc3cnc4ccc(-n5cccn5)cc4c32)ccc1C [CHMFL-BTK-11]
- remaining binding at 1 µM [1]: 69%
- remaining binding at 1 µM [2]: 97%
- remaining binding at 1 µM [3]: 98%
- remaining binding at 1 µM [4]: 66%
- remaining binding at 1 µM [5]: 100%
- remaining binding at 1 µM [6]: 97%
- remaining binding at 1 µM [7]: 100%
- remaining binding at 1 µM [8]: 100%
- remaining binding at 1 µM [9]: 100%
- remaining binding at 1 µM [10]: 98%
- remaining binding at 1 µM [11]: 79%
- remaining binding at 1 µM [12]: 82%
- remaining binding at 1 µM [13]: 94%
- remaining binding at 1 µM [14]: 93%
- remaining binding at 1 µM [15]: 100%
- remaining binding at 1 µM [16]: 98%
- remaining binding at 1 µM [17]: 100%
- remaining binding at 1 µM [18]: 80%
- remaining binding at 1 µM [19]: 100%
- remaining binding at 1 µM [20]: 100%
- remaining binding at 1 µM [21]: 100%
- remaining binding at 1 µM [22]: 97%
- remaining binding at 1 µM [23]: 100%
- remaining binding at 1 µM [24]: 96%
- IC50 [25]: 26.8 nM
- IC50 [26]: 227 nM
